Test results: the supplement of paper PMC8671470

What was measured:
Details in all cases: 72 h
BV-173 [1] = system: BV-173
In short: (§1)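 Each of fifteen myeloid leukaemia cell lines was seeded in RPMI 1640 at a density titrated to its linear growth range. The cells were incubated for 72 h at 37 °C and 5% CO2 with compounds at five tenfold doses from 1 to 10,000 nM, in duplicate. After ATP luminescence was normalised to vehicle and to a positive control at 10 µM, four-parameter log-logistic curves were fitted. These curves gave the IC50.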

HEL [2] = system: HEL
In short: as §1

HL-60 [3] = system: HL-60
In short: as §1

K-562 [4] = system: K-562
In short: as §1

KCL-22 [5] = system: KCL-22
In short: as §1

KG-1 = system: KG-1
In short: as §1

KU-812 [6] = system: KU-812
In short: as §1

LAMA-84 [7] = system: LAMA-84
In short: as §1

ML-2 [8] = system: ML-2
In short: as §1

MOLM-13 = system: MOLM-13
In short: as §1

MV4-11 = system: MV4-11
In short: as §1

Mono-Mac-6 [9] = system: Mono-Mac-6
In short: as §1

NOMO-1 [10] = system: NOMO-1
In short: as §1

SHI-1 [11] = system: SHI-1
In short: as §1

THP-1 = system: THP-1
In short: as §1

HL-60 [12] = test: cell viability (% survival relative to DMSO control); higher = less cytotoxic
In short: (§2)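 A rescreen of the full library used HL-60 cells in RPMI 1640 with 10% FBS on 384-well plates, run in duplicate at five tenfold concentrations (1–10,000 nM). Each screen included DMSO or 100 nM of one of three metabolic inhibitors and ran 72 h at 37 °C, 5% CO2. CellTiter-Glo viability was scaled between DMSO and 10 μM proteasome-inhibitor wells. Any area under the curve comes from four-parameter log-logistic fits with drc and PharmacoGx.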

BV-173 [13] = test: cell viability (% survival relative to DMSO control, bortezomib = 0%); higher = less cytotoxic
In short: (§3)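 Fifteen myeloid leukaemia cell lines were exposed to compounds at 1, 10, 100, 1000 or 10000 nM in 384-well plates for 72 h at 37 °C and 5% CO2. Viability was read by CellTiter-Glo luminescence and normalised, with vehicle as 100% and a 10 µM positive control as 0%. Values are percent survival averaged over duplicates.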

HEL [14] = test: as above
In short: as §3

HL-60 [15] = test: as above
In short: as §3

K-562 [16] = test: as above
In short: as §3

KCL-22 [17] = test: as above
In short: as §3

KU-812 [18] = test: as above
In short: as §3

LAMA-84 [19] = test: as above
In short: as §3

ML-2 [20] = test: as above
In short: as §3

Mono-Mac-6 [21] = test: as above
In short: as §3

NOMO-1 [22] = test: as above
In short: as §3

SHI-1 [23] = test: as above
In short: as §3

HL-60 [24] = test: area under dose-response curve (viability, 1 nM-10 uM) (fraction (0-1)); higher = more sensitive
In short: as §2

COc1ccc(S(=O)(=O)N2CCN(S(=O)(=O)c3ccc4c(c3)OCCO4)CC2)cc1 [BML283]
Details | IC50 (cell viability) [µM]
BV-173 [1] | > 10
HEL [2] | > 10
HL-60 [3] | > 10
K-562 [4] | > 10
KCL-22 [5] | > 10
KG-1 | > 10
KU-812 [6] | > 10
LAMA-84 [7] | > 10
ML-2 [8] | > 10
MOLM-13 | > 10
MV4-11 | > 10
Mono-Mac-6 [9] | > 10
NOMO-1 [10] | > 10
SHI-1 [11] | > 10
THP-1 | > 10

cell viability [%], HL-60 [12]
Details | 0.001 µM | 0.01 µM | 0.1 µM | 1 µM | 10 µM
co-treatment: AZD3965 100 nM | 101.4 | 96.5 | 107 | 104 | 84
co-treatment: DMSO vehicle | 102 | 86.2 | 103 | 107 | 97.1
co-treatment: GSK2194069 100 nM | 99.2 | 74.9 | 99.56 | 99.4 | 98.6
co-treatment: pictilisib 100 nM | 105 | 74.7 | 100.2 | 90.1 | 77.4

Details | area under dose-response curve, co-treatment: AZD3965 100 nM | area under dose-response curve, co-treatment: DMSO vehicle | area under dose-response curve, co-treatment: GSK2194069 100 nM | area under dose-response curve, co-treatment: pictilisib 100 nM | cell viability, 1 nM [%] | cell viability, 10 nM [%] | cell viability, 100 nM [%] | cell viability, 1000 nM [%] | cell viability, 10000 nM [%]
BV-173 [13] | – | – | – | – | 89.9 | 85.8 | 97.5 | 91.7 | 112
HEL [14] | – | – | – | – | 107 | 88.3 | 96.7 | 90.8 | 101
HL-60 [15] | – | – | – | – | 104 | 97.4 | 85.2 | 120 | 99.9
HL-60 [24] | < 0.0301 | < 0.0301 | < 0.0301 | 0.0571 | – | – | – | – | –
K-562 [16] | – | – | – | – | 107 | 95.2 | 97.7 | 92.5 | 98.6
KCL-22 [17] | – | – | – | – | 106 | 93.3 | 91.1 | 98.1 | 91.2
KU-812 [18] | – | – | – | – | 90.3 | 99.5 | 103 | 108 | 96.5
LAMA-84 [19] | – | – | – | – | 101 | 93.8 | 100 | 103 | 106
ML-2 [20] | – | – | – | – | 102 | 98.6 | 105 | 106 | 102
Mono-Mac-6 [21] | – | – | – | – | 103 | 101 | 99.8 | 97.6 | 98.6
NOMO-1 [22] | – | – | – | – | 98 | 95.1 | 94.9 | 102 | 99.7
SHI-1 [23] | – | – | – | – | 110 | 94.8 | 96.9 | 96.3 | 103
